Source: US6066642A, “Dihydropyridine-, pyridine-, benzopyran-4-one- and triazoloquinazoline derivative, their preparation and their use as adenosine receptor antagonists” (priority 1998, dated 2000)
Where two headings read alike, the source gives them in different places.

Molecular target: T1, A2a receptors (Rattus norvegicus, UniProt P30543)
T1 construct: Displacement of specific [^3 H]; from tissue; host or cells: rat striatal membranes
Experiment: radioligand binding, displacement of specific [3H]CGS 21680 binding in rat striatal membranes
Conditions: for Ki: [3H]CGS 21680, rat striatal membranes

[1] = Table 12, 10^-4 M, read-out: % inhibition rA2A
[2] = Table 12, 10^-4 M, read-out: displacement of specific binding rA2A
[3] = Table 11, 10^-4 M, read-out: % inhibition rA2A
[4] = Table 11, 10^-4 M, read-out: displacement of specific binding rA2A

T1 sequence (P30543 whole entry): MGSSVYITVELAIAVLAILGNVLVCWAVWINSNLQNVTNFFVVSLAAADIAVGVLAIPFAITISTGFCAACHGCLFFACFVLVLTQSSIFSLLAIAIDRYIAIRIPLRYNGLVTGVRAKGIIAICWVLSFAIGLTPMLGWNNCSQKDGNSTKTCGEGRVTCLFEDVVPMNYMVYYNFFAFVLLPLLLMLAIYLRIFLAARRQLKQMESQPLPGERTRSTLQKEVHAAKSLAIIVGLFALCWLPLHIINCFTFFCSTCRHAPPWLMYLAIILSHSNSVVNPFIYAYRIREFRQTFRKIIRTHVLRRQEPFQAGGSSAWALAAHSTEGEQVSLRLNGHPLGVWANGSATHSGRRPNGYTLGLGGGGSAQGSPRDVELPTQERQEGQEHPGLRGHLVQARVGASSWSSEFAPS
Description: ^b Displacement of specific [^3 H]
or as a percentage of specific binding displaced at 100 μM.

3,5-Diethyl 2,6-dimethyl-4-(2-thienyl)-1,4-(±)-dihydropyridine-3,5-dicarboxylate [Compound 114]
% inhibition rA2A (Table 12, 10^-4 M): 36%

CCOC(=O)C1=C(c2ccccc2)NC(C)=C(C(=O)OC[C@H](OC)c2ccccc2)C1C#Cc1ccccc1 (mixture of isomers) [Compound 128, 3-(2-Methoxy-2-phenyl)-ethyl 5-Ethyl 2-methyl-4-phenylethynyl-6-phenyl-1.4-(±)-dihydropyridine-3,5-dicarboxylate]
inhibition at 100 µM [1]: 33%

CCOC(=O)C1=C(C)NC(C)=C(C(=O)OC)C1C (racemic) [Compound 52, 3-Methyl-5-ethyl 2,4,6-trimethyl-1,4(R,S)-dihydropyridine-3,5-dicarboxylate]
Ki (Table 9, read-out: Ki rA2A): > 100 µM

COCCOC(=O)C1=C(C)NC(C)=C(C(=O)OC)C1C (racemic) [Compound 53, 3-methyl,5-(2-methoxy)ethyl 2,4,6-trimethyl-1,4(R,S)-dihydropyridine-3,5-dicarboxylate]
inhibition at 100 µM (Table 9, 10^-4 M, read-out: % of specific binding displaced rA2A): 19%

COC(=O)C1=C(C)NC(C)=C(C(=O)OCc2ccccc2)C1C (racemic) [Compound 54, 3-methyl,5-benzyl 2,4,6-trimethyl-1,4(R,S)-dihydropyridine-3,5-dicarboxylate]
Ki (Table 9, read-out: Ki rA2A): 9.72 µM

CCOC(=O)C1=C(C)NC(C)=C(C(=O)OC)C1CC (racemic) [Compound 56, 3-Methyl-5-ethyl-2,6-dimethyl-4-ethyl-1,4(R,S)-dihydropyridine-3,5-dicarboxylate]
Ki (Table 9, read-out: Ki rA2A): 9.56 ± 2.69 µM

CCCC1C(C(=O)OC)=C(C)NC(C)=C1C(=O)OCC (racemic) [Compound 57, 3-methyl,5-ethyl 2,6-dimethyl-4-propyl-1,4(R,S)-dihydropyridine-3,5-dicarboxylate]
Ki (Table 9, read-out: Ki rA2A): 11.5 µM

CCOC(=O)C1=C(C)NC(C)=C(C(=O)OC)C1CC(C)CCC=C(C)C (racemic) [Compound 58]
Ki (Table 9, read-out: Ki rA2A): 23.1 µM

CCOC(=O)C1=C(C)NC(C)=C(C(=O)OC)C1c1ccccc1C(F)(F)F (racemic) [Compound 68, 3-methyl-5-ethyl-2,6-dimethyl-4-(2-α,α,α-trifluoromethylphenyl)-1,4(R,S)-dihydropyridine-3,5-dicarboxylate]
Ki (Table 9, read-out: Ki rA2A): 20.7 µM

CCOC(=O)C1=C(C)NC(C)=C(C(=O)OC)C1c1ccc(OC)cc1 (racemic) [Compound 71, 3-methyl-5-ethyl-2,6-dimethyl-4-(4-methoxyphenyl)-1,4(R,S)-dihydropyridine-3,5-dicarboxylate]
Ki (Table 9, read-out: Ki rA2A): 12.7 ± 3.8 µM

CCOC(=O)C1=C(C)NC(C)=C(C(=O)OC)C1c1ccc(O)c(OC)c1 (racemic) [Compound 72, 3-methyl-5-ethyl-2,6-dimethyl-4-(4-hydroxy,3-methoxyphenyl)-1,4(R,S)-dihydropyridine-3,5-dicarboxylate]
Ki (Table 9, read-out: Ki rA2A): 56.8 ± 1.9 µM

CCCCC1=C(C(=O)OCC)C(C)C(C(=O)OCC)=C(C)N1 (racemic) [Compound 77, 3,5-diethyl-2,4-dimethyl-6-butyl-1,4(R,S)-dihydropyridine-3,5-dicarboxylate]
Ki (Table 9, read-out: Ki rA2A): 38 ± 10.6 µM

CCOC(=O)C1=C(C)NC(c2ccccc2)=C(C(=O)OCC)C1C (racemic) [Compound 78, 3,5-diethyl-2,4-dimethyl-6-phenyl-1,4(R,S)-dihydropyridine-3,5-dicarboxylate]
Ki (Table 9, read-out: Ki rA2A): 35.9 µM

CCOC(=O)C1=C(C)NC(c2ccccc2)=C(C(=O)OCC)C1C#Cc1ccccc1 (racemic) [Compound 98]
inhibition at 100 µM (read-out: % inhibition rA2A): 26%

CCOC(=O)C1=C(C)NC(c2ccccc2)=C(C(=O)OCC)C1c1ccccc1 (racemic) [Compound 110, 3,5-Diethyl 2-methyl-4,6-diphenyl-1,4-(±)-dihydropyridine-3,5-dicarboxylate]
inhibition at 100 µM [2]: < 10%

CCOC(=O)C1=C(C)NC(c2ccccc2)=C(C(=O)OCC)C1c1ccccn1 (racemic) [Compound 111, 3,5-Diethyl 2-methyl-4-(2-pyridyl)-6-phenyl-1,4-(±)-dihydropridine-3,5-dicarboxylate]
inhibition at 100 µM [1]: 25%

CCOC(=O)C1=C(C)NC(c2ccccc2)=C(C(=O)OCC)C1c1cccnc1 (racemic) [Compound 112, 3,5-Diethyl 2-methyl-4-(3-pyridyl)-6-phenyl-1,4-(±)-dihydropridine-3,5-dicarboxylate]
inhibition at 100 µM [1]: 40%

CCOC(=O)C1=C(C)NC(c2ccccc2)=C(C(=O)OCC)C1c1ccncc1 (racemic) [Compound 113, 3.5-Diethyl 2-methyl-4-(4-pyridyl)-6-phenyl-1,4(±)-dihydropyridine-3.5-dicarboxylate]
Ki (Table 12, read-out: Ki rA2A): 44.7 ± 3.7 µM

CCOC(=O)C1=C(C)NC(c2ccccc2)=C(C(=O)OCC)C1c1cc2ccccc2o1 (racemic) [Compound 116, 3,5-Diethyl 2-methyl-4-(2-benzofuryl)-6-phenyl-1,4-(±)-dihydropridine-3,5-dicarboxylate]
inhibition at 100 µM [2]: < 10%

CCOC(=O)C1=C(C)NC(c2ccccc2)=C(C(=O)OCC[Si](C)(C)C)C1C#Cc1ccccc1 (racemic) [Compound 129, 3-Ethyl 5-(2-trimethylsilyl)-ethyl 2-methyl-4-phenylethynyl-6-phenyl-1,4-(±)-dihydropyridine-3,5-dicarboxylate]
inhibition at 100 µM [1]: 18 ± 5%

CCOC(=O)C1=C(C)NC(c2ccccc2)=C(C(=O)SCC)C1C#Cc1ccccc1 (racemic) [Compound 130a, 3-Ethyl 5-thioethyl 2-methyl-4-phenylethynyl-6-phenyl-1,4(±)-dihydropyridine-3,5-dicarboxylate]
inhibition at 100 µM [1]: 17%

CCNC(=O)C1=C(c2ccccc2)NC(C)=C(C(=O)OCC)C1C#Cc1ccccc1 (racemic) [Compound 132, 3-Ethoxycarbonyl-2-methyl-4-phenylethynyl-6-phenyl-1,4(±)-dihydropyridine-5-carboxylic ethyl amide]
inhibition at 100 µM [1]: 47%

CCOC(=O)C1=C(c2ccccc2)NC(C)=C(C(=O)OC(C)(C)C)C1C#Cc1ccccc1 (racemic) [Compound 133, 3-t-Butyl 5-ethyl 2-methyl-4-phenylethynyl-6-phenyl-1,4-(±)-dihydropyridine-3,5-dicarboxylate]
inhibition at 100 µM [1]: 20 ± 2%

CCNC(=O)C1=C(C)NC(c2ccccc2)=C(C(=O)OCC)C1C#Cc1ccccc1 (racemic) [Compound 134, 5-Ethoxycarbonyl-2-methyl-4-phenylethynyl-6-phenyl-1,4-(±)-dihydropyridine-3-carboxylic ethyl amide]
inhibition at 100 µM [1]: 19 ± 6%

CCOC(=O)C1=C(c2ccccc2)NC(C)=C(C(C)=O)C1C#Cc1ccccc1 (racemic) [Compound 135]
inhibition at 100 µM (read-out: % inhibition rA2A): 17 ± 7%

CCOC(=O)C1=C(c2ccccc2)NC2=C(C(=O)CCC2)C1C#Cc1ccccc1 (racemic) [Compound 136, Ethyl 3-oxo-1,4,5,6,7,8-hexahydroquinoline-2-methyl-4-phenylethynyl-6-phenyl-1,4-±-dihydropyridin-5-carboxylate]
inhibition at 100 µM [1]: 22 ± 4%

CCOC(=O)c1c(C)nc(-c2ccccc2)c(C(=O)OCC)c1/C=C/c1ccccc1 [A]
Ki (Table 11, read-out: Ki rA2A): 2.6 µM

CCOc1cc(O)c2c(=O)c(OCC)c(-c3ccccc3)oc2c1 [Compound 3b, 3,7-Diethoxy-5-hydroxyflavone]
Ki (Table 3, read-out: Ki rA2a): 63.8 ± 18.8 µM

O=c1c(O)c(-c2ccc(O)c(O)c2)oc2cc(O)cc(O)c12 [Compound 37, quercetin, reference compound]
Ki (Table 6, read-out: K2 (rA2a)): 6.99 ± 0.89 µM

CCOC(=O)C1=C(C)NC(C)=C(C(=O)OCCCSc2ccccc2)C1C (stereo not drawn) [Compound 55]
Ki (Table 9, read-out: Ki rA2A): 7.1 µM

CCOC(=O)C1=C(C)NC(C)=C(C(=O)OCC)C1c1cccc([N+](=O)[O-])c1 [Compound 62]
Ki (Table 9, read-out: Ki rA2A): 18.2 µM

CCOC(=O)C1=C(C)NC(C)=C(C(=O)OC)C1CCc1ccccc1 (stereo not drawn) [Compound 74]
Ki (Table 9, read-out: Ki rA2A): 6.71 ± 2.06 µM

CCOC(=O)c1c(C)nc(-c2ccccc2)c(C(=O)OCC)c1C [Compound 81]
Ki (Table 10, read-out: Ki rA2a): 28.4 µM

CCOC(=O)C1=C(C)NC(C)=C(C(=O)OCC)C1/C=C/c1ccccc1 [Compound 84]
Ki (Table 11, read-out: Ki rA2A): 9.23 ± 3.6 µM

CCOC(=O)C1=C(C)NC(C)=C(C(=O)OCc2ccccc2)C1/C=C/c1ccccc1 (stereo not drawn) [Compound 85]
inhibition at 100 µM [3]: 14.4 ± 4%

CCOC(=O)C1=C(C)NC(c2ccccc2)=C(C(=O)OCC)C1CC (stereo not drawn) [Compound 86]
Ki (Table 11, read-out: Ki rA2A): 14.5 µM

CCOC(=O)C1=C(C)NC(c2ccccc2)=C(C(=O)OCc2ccccc2)C1C (stereo not drawn) [Compound 87]
Ki (Table 11, read-out: Ki rA2A): 3.15 µM

CCOC(=O)C1=C(C)NC(c2ccc(C)cc2)=C(C(=O)OCC)C1/C=C/c1ccccc1 (stereo not drawn) [Compound 88]
inhibition at 100 µM [3]: 37%

CCOC(=O)C1=C(C)NC(c2ccc(OC)cc2)=C(C(=O)OCC)C1/C=C/c1ccccc1 (stereo not drawn) [Compound 89]
inhibition at 100 µM [4]: < 10%

CCOC(=O)C1=C(C)NC(c2ccc(Cl)cc2)=C(C(=O)OCC)C1/C=C/c1ccccc1 (stereo not drawn) [Compound 90]
inhibition at 100 µM [3]: 12 ± 7%

CCOC(=O)C1=C(C)NC(c2ccoc2)=C(C(=O)OCC)C1/C=C/c1ccccc1 (stereo not drawn) [Compound 92]
inhibition at 100 µM [3]: 35 ± 6%

CCOC(=O)C1=C(C)NC(c2ccsc2)=C(C(=O)OCC)C1/C=C/c1ccccc1 (stereo not drawn) [Compound 93]
inhibition at 100 µM [4]: < 10%

CCOC(=O)C1=C(C)NC(c2ccccc2)=C(C(=O)OCC)C1/C=C/c1ccccc1OC (stereo not drawn) [Compound 94]
inhibition at 100 µM [3]: 17 ± 12%

CCOC(=O)C1=C(C)NC(c2ccccc2)=C(C(=O)OCC)C1/C=C/c1ccccc1[N+](=O)[O-] (stereo not drawn) [Compound 95]
inhibition at 100 µM [4]: < 10%

CCOC(=O)C1=C(C)NC(c2ccccc2)=C(C(=O)OCC)C1C=C(c1ccccc1)c1ccccc1 (stereo not drawn) [Compound 97]
Ki (Table 11, read-out: Ki rA2A): 8 µM

CCOC(=O)C1=C(C)NC(c2ccccc2)=C(C(=O)OCC)C1C#Cc1ccccc1 (stereo not drawn) [Compound 109]
inhibition at 100 µM [1]: 25 ± 3%

CCOC(=O)C1=C(C)NC(c2ccccc2)=C(C(=O)OCC)C1c1ccco1 (stereo not drawn) [Compound 115]
inhibition at 100 µM [2]: < 10%

CCOC(=O)C1=C(c2ccccc2)NC(C)=C(C(=O)SCC)C1C#Cc1ccccc1 (stereo not drawn) [Compound 130b]
Ki (Table 12, read-out: Ki rA2A): 5.15 ± 1.83 µM
